The results in this text go back to patent publication US20040014676A1, “SRC kinase inhibitors useful for treating osteoporosis” (priority 2001, published 2004).

Some results are limits rather than exact numbers.

This assay concerns the target T1, Src kinase (Homo sapiens, UniProt P12931).
T1 construct: purchased Upstate Bioteolnology (sic; Upstate Biotechnology); later HMR stock 27597-019E1 #14-117
The assay can be described thus: Phosphorylation assay of Src kinase inhibitors (radiometric, 96 well filter plate). It is filed as biochemical. The settings on record: duplicates, tested in the range of 400-0.098 µM; 10 µM peptide substrate (FIYGAFKKKKNH2), 5 µM unlabeled ATP, room temperature 30 min; read-out: IC50. On the procedure: The present invention provides novel compounds of Formulae I through XVIII discussed above. The following compounds which fall within Formulae I through XVIII are characterized by structure, IUPAC name and activity using phosphorylation assay for protein tyrosine Src kinase.
Phosphorylation Assay of Src Kinase Inhibitors
The activity of Src kinase was measured in a 96 well plate phosphorylation assay where the transfer of gamma phosphate from ATP to peptide substrate was measured radiometrically. […] Ki values were determined experimentally for some of the inhibitors. The phosphocellulose filter plates (Millipore catalog #MAPH NOB) were prewet prior to the phosphorylation assay by addition of 100 1 per well of 30 mM MES buffer+0.4 mg/ml BSA. After a 20-minute incubation, the buffer was removed completely via a Millipore vacuum manifold. The phosphorylation assay was then set up in the filter plates in a total volume per well of 60 1. The 60 1 consisted of compound (see concentration ranges above), a 1:100 dilution of Src kinase (originally Upstate Bioteolnology, #14-117; later HMR stock 27597-019E1) or assay buffer alone (for no enzyme control wells), 10 M peptide substrate (FIYGAFKKKKNH2), 5 M unlabeled ATP and a 1:500 dilution of P-ATP (New England Nuclear, catalog #NEG-602H, 2000 Ci/mmol). The reaction was mixed and incubated at room temperature for 30 min. The kinase reactions were stopped by addition of 150 mM H3PO4 and incubated for 10 minutes. The filter plate wells were filtered and washed seven times with 200 1 per well of 150 mM H3PO4. Finally, the filter plate was placed into a Packard plate adapter (Packard catalog #600517B), 35 1 of Microscint-20 (Packard catalog #6013621) was added to each well, the plate was sealed (TopSeal A sealers; Packard catalog #6005185) and counted on a Packard TopCount.
For `N[C@@H](Cc1ccc(O)cc1)C(=O)NCCCCOc1ccc2ccccc2c1C(=O)NCC(=O)NCCCO` [Example 117, 2-[[4-[[1-OXO-2(S)-AMINO-3-(4- HYDROXYPHENYL)]PROPYL]AMINO]BUTOXY]NAPHTHALENE-1-[N-[[(3- HYDROXYPROPYLAMINO)- CARBONYL]METHYL]]CARBOXAMIDE], the IC50 is 47 µM.

For `NC(=O)CC(=O)Nc1cc2ccccc2cc1OCCCCNC(=O)[C@@H](N)Cc1csc2ccccc12` [Compound 152, (2S)-2-amino-3-benzo[b]thiophen-3-yl-N-{4-[3-(2-carbamoylacetylamino)(2-naphthyloxy)]butyl}propanamide], the IC50 turned out to be 1 µM.

Take `CN[C@@H](Cc1ccccc1)C(=O)NCCCCOc1cc2ccccc2cc1C(=O)NCC(N)=O` [Example 67, 3-[4-[[(1-OXO-2(S)-METHYLAMINO-3- PHENYL)PROPYL]AMINO]BUTOXY]- NAPHTHALENE-2-(N-ACETAMIDO)- CARBOXAMIDE]: the IC50 was 2.3 µM.

On to `NC(=O)c1cc2ccccc2cc1OCCCCNC(=O)[C@@H](N)Cc1ccc(O)cc1` [Example 6, 3-[4-[[2(S)-AMINO-3-(4-HYDROXY- PHENYL)-1-OXOPROPYL]AMINO]- BUTOXY]-NAPHTHALENE-2- CARBOXAMIDE], for which the IC50 came to 47 µM.

Consider “3-[[[2(S)-AMINO-3-(4-HYDROXY- PHENYL)-1-OXO]PROPYL]AMINO]- BUTOXY]NAPHTHALENE-2-[N- [(AMIDO)[2-(INDOL-3-YL)METHYL]- METHYL]CARBOXAMIDE [Example 29]”, for which the half-maximal inhibitory concentration (IC50) stood at 60 µM.

As to `CC(c1ccc(Cl)c(Cl)c1)[C@H](N)C(=O)NCCCCOc1cc2ccccc2cc1C(=O)NCC(N)=O` (stereo partly drawn) [Example 60, 3-[4-[[[2(S)-AMINO-3(3,4-DICHLORO- PHENYL)-1-OXO]BUTYL]AMINO]- BUTOXY]-NAPHTHALENE-2-(N- ACETAMIDO)CARBOXAMIDE], the IC50 was 1.56 µM.

In the case of “3-[4-[[2(S)-AMINO-3-(4-HYDROXY- PHENYL)-1-OXOPROPYL]AMINO]- ETHOXY]-2-[N-ACETAMIDO]- NAPHTHALENECARBOXAMIDE [Example 23]”, the 50% inhibitory concentration (IC50) turned out to be 3.4 µM.

In the case of `NC(=O)CNC(=O)c1cc2ccccc2cc1OCCCCNC(=O)[C@@H](N)Cc1ccc(I)cc1` [Example 62, 3-[4-[[[1-OXO-2(S)-AMINO-3(4- IODOPHENYL)]PROPYL]AMINO]- BUTOXY]-NAPHTHALENE-2-(N- ACETAMIDO)CARBOXAMIDE], the IC50 was found to be 6.25 µM.

On to `NC(=O)Cc1nc(-c2cc3ccccc3cc2OCCCCNC(=O)[C@@H](N)Cc2csc3ccccc23)no1` [Compound 156, (2S)-2-amino-3-benzo[b]thiophen-3-yl-N-(4-{3-[5-(carbamoylmethyl)(1,2,4-oxadiazol-3-yl)](2-naphthyloxy)}butyl)propanamide], for which the half-inhibitory concentration (IC50) came to 20 µM.

Regarding `COc1ccc2cc(OCCCCNC(=O)[C@@H](N)Cc3ccc(O)cc3)c(C(=O)NCC(N)=O)cc2c1` [Example 106, 3-[[4-[[2(S)-AMINO-3-(4-HYDROXY- PHENYL)-1-OXOPROPYL]AMINO]- BUTOXY]-7-METHOXY- NAPHTHALENE-2-[N-ACETAMIDO]- CARBOXAMIDE], the IC50 came out at 2.5 µM.

Consider `NC(=O)CNC(=O)c1cc2ccccc2cc1OCCCCNC(=O)[C@@H](N)Cc1csc2ccccc12` [Example 44, 3-[[4-[[2(S)-AMINO-3(BENZOTHIOPHEN- 3-YL)-1-OXO]PROPYL]AMINO]- BUTOXY]-NAPHTHALENE-2- (N-ACETAMIDO)CARBOXAMIDE], for which the IC50 came to 0.23 µM.

On to `NC(=O)CNC(=O)c1cc2ccccc2cc1OCCCNC(=O)[C@@H](N)Cc1ccc(O)cc1` [Example 93, 3-[5-[[[1-OXO-2(S)-AMINO-3-(4- HYDROXYPHENYL)]PROPYL]AMINO]- PROPYLOXY]NAPHTHALENE-2-(N- ACETAMIDO)CARBOXAMIDE], for which the IC50 turned out to be 45 µM.

For the molecule `NC(=O)CNC(=O)c1cc2ccccc2cc1OCCCCNC(=O)CNCc1cccc2ccccc12` [Example 71], the IC50 turned out to be 6 µM.

Consider `NC(=O)CNC(=O)c1cc2ccccc2cc1OCCCCCCNC(=O)[C@@H](N)Cc1ccc(O)cc1` [Example 95, 3-[6-[[[1-OXO-2(S)-AMINO-3-(4- HYDROXYPHENYL)]PROPYL]AMINO]- HEXOXY]NAPHTHALENE-2-(N- ACETAMIDO)CARBOXAMIDE], for which the concentration for half-maximal inhibition (IC50) worked out at 7.1 µM.

As for `NC(=O)CNC(=O)c1cc2ccccc2cc1OCCCCNC(=O)[C@@H](N)c1ccccc1` [Example 37, 3-[[4-[(2(S)-AMINO-2-PHENYL-1- OXO)ETHYL]AMINO]BUTOXY]- NAPHTHALENE-2-(N- ACETAMIDO)CARBOXAMIDE], the IC50 came out at 3.3 µM.

With `CC(NC(=O)c1cc2ccccc2cc1OCCCCNC(=O)[C@@H](N)Cc1ccc(O)cc1)C(N)=O` (stereo partly drawn) [Example 9, 3-[4-[[2(S)-AMINO-3-(4-HYDROXY- PHENYL)-1-OXOPROPYL]AMINO]- BUTOXY]-NAPHTHALENE-2-N-[(1- AMIDO)ETHYL]CARBOXAMIDE], the 50% inhibitory concentration (IC50) worked out at 25 µM.

`NC(=O)CNC(=O)c1cc2ccccc2cc1OCCCCNC(=O)[C@@H](N)Cc1ccc(O)cc1` [Example 5, 3-[4-[[2(S)-AMINO-3-(4-HYDROXY- PHENYL)-1-OXOPROPYL]AMINO]- BUTOXY]-2-[N-ACETAMIDO]- NAPHTHALENECARBOXAMIDE]: the half-maximal inhibitory concentration (IC50) amounted to 0.47 µM.

`NC(=O)C(Cc1ccccc1)NC(=O)c1cc2ccccc2cc1OCCCCNC(=O)[C@@H](N)Cc1ccc(O)cc1` (stereo partly drawn) [Example 10, 3-[4-[[2(S)-AMINO-3-(4-HYDROXY- PHENYL)-1-OXOPROPYL]AMINO]- BUTOXY]-NAPHTHALENE-2-[N- [(AMIDO)(BENZYL)METHYL]]- CARBOXAMIDE]: the concentration for half-maximal inhibition (IC50) was at least 500 µM.

As for `NC(=O)CNC(=O)c1cc2ccccc2cc1OCCCCNC(=O)[C@@H](N)Cc1ccc(O)c([N+](=O)[O-])c1` [Example 54, 3-[4-[[[2(S)-AMINO-3-(3-NITRO-4- HYDROXY)PHENYL-1-OXO]PROPYL]- AMINO]BUTOXY]-NAPHTHALENE-2- (N-ACETAMIDO)CARBOXAMIDE], the IC50 amounted to 0.66 µM.

Regarding `NC(=O)CNC(=O)c1cc2ccccc2cc1OCCCCNC(=O)C(N)C1Cc2ccccc2C1` (centres unmarked) [Example 52, 3-[4-[N-[1-OXO-2-AMINO-2-(INDAN-2- YL)]ETHYL]-AMINOBUTOXY]- NAPHTHALENE-2-(N-ACETAMIDO)- CARBOXAMIDE], the concentration for half-maximal inhibition (IC50) was 1.56 µM.

As to `NC(=O)CNC(=O)c1cc2ccccc2cc1OCCCCN1CCC[C@@H](c2ccccc2)[C@H](N)C1=O` [Example 76, 3-[4-[(2-OXO-3(R)-AMINO-4(S)- PHENYL)HEXAMETHYLENEIMIN-1- YL]BUTOXY]-NAPHTHALENE-2-(N- ACETAMIDO)CARBOXAMIDE], the IC50 came out at 6 µM.

`N=C(N)NCCCC(NC(=O)c1cc2ccccc2cc1OCCCCNC(=O)[C@@H](N)Cc1ccc(O)cc1)C(N)=O` (stereo partly drawn) [Example 11, 3-[4-[[2(S)-AMINO-3-(4-HYDROXY- PHENYL)-1-OXOPROPYL]AMINO]- BUTOXY]-NAPHTHALENE-2-[N- [[AMIDO][(3-AMINOIMINOMETHYL)- PROPYLAMINO]METHYL]]- CARBOXAMIDE]: the IC50 stood at 113 µM.

For `NC(=O)CNC(=O)c1cc2ccccc2cc1OCCCCNC(=O)[C@@H](N)Cc1ccc(Br)cc1` [Example 61, 3-[4-[[[1-OXO-2(S)-AMINO-3(4- BROMOPHENYL)]PROPYL]AMINO]- BUTOXY]-NAPHTHALENE-2-(N- ACETAMIDO)CARBOXAMIDE], the IC50 was determined as 0.5 µM.

Take `NC(=O)CNC(=O)c1cc2ccccc2cc1OCCCCNC(=O)C1NCCC1c1ccc(O)cc1` [Example 21, 3-[N-[[[(3-(R)4-HYDROXYPHENYL)- TETRAHYDROPYRROL-2-YL]- CARBONYL]AMINO]BUTOXY]- NAPHTHALENE-2-[N-(2- AMIDOMETHYL)]CARBOXAMIDE]: the IC50 was found to be 4.6 µM.

In the case of `NC(=O)CNC(=O)c1cc2ccccc2cc1OCCCCNC(=O)[C@@H](N)C1CCCCC1` [Example 50, 3-[[[4-(2(S)-AMINO-2-CYCLOHEXYL-1- OXO)ETHYL]AMINO]BUTOXY]- NAPHTHALENE-2-(N-ACETAMIDO)- CARBOXAMIDE], the IC50 came out at 2 µM.

Turning to `NC(=O)CNC(=O)c1cc2ccccc2cc1OCCCCNC(=O)[C@@H](N)Cc1c(F)c(F)c(F)c(F)c1F` [Example 43, 3-[[4-[[2(S)-AMINO-3-(2,3,4,5,6- PENTAFLUORO)PHENYL-1-OXO]- PROPYL]AMINO]BUTOXY]- NAPHTHALENE-2- (N-ACETAMIDO)CARBOXAMIDE], the IC50 was determined as 1.38 µM.

On to `NC(=O)CNC(=O)c1cc2ccccc2cc1OCCCCNC(=O)[C@H](N)CSCc1ccccc1` [Example 63, 3-[4-[[[1-OXO-2(S)-AMINO- 3(BENZYLMERCAPTO)]PROPYL]- AMINO]BUTOXY]-NAPHTHALENE-2- (N-ACETAMIDO)CARBOXAMIDE], for which the IC50 stood at 2.23 µM.

Take `CN(C)[C@@H](Cc1ccccc1)C(=O)NCCCCOc1cc2ccccc2cc1C(=O)NCC(N)=O` [Example 68]: the IC50 came to 50 µM.

In the case of `NC(=O)CNC(=O)c1cc2ccccc2cc1OCCCCNC(=O)[C@@H](N)Cc1cccnc1` [Example 48, 3-[[4-[[2(S)-AMINO-3-(PYRIDIN-3-YL)-1- OXO]PROPYL]AMINO]BUTOXY]- NAPHTHALENE-2-(N-ACETAMIDO)- CARBOXAMIDE], the IC50 came out at 9.6 µM.
